Laboratory results taken from patent publication US9737502B2, “Calebin A for hepatic steatosis” (SAMI LABS LIMITED, priority 2011, dated 2017).

Columns and labels:
adiponectin [1] = experiment: Estimation of adiponectin in adipocyte supernatant by ELISA; type: cell-based; conditions: human adipocytes
Method: (§1) 3T3-L1 cells approximately 60×10^4 cells are seeded for 48-72 hrs to get 70-80% confluence. After 48 hrs 200 μl of AIM (Adipogenesis induction medium) freshly prepared is added. 72 hrs later 200 μl APM (Adipogenesis progression medium) with the test compounds in different concentrations is added to the wells. The cells are incubated for 48 hrs in a humidified atmosphere (37° C.) of 5% CO2 and 95% air. The supernatant is collected and stored for the estimation of leptin, adiponectin, IL-6 and TNF-α by ELISA. Cells are fixed by adding 100 μl of 10% formalin and ORO staining is done. OD is read at 492 nm in microplate reader. The results are expressed as IC50 values using Graphpad prism software.
(§2) The percentage of inhibition of adipogenesis is calculated as follows, % inhibition=C−T/[…] Where C-absorbance of Oil red 0 in differentiating/undifferentiated cells T-absorbance of Oil Red-O in sample treated differentiating/undifferentiated cells. The estimation of leptin, adiponectin, IL-6 and TNF-α is done according to user's manual from R&D Systems.

TNF-α [2] = experiment: Serum TNF-α in LPS-injected mice after 6 days oral treatment (ELISA); type: in vivo, Swiss albino mice; conditions: graded doses, then LPS 1 mg/kg i.v., serum 90 min after LPS
Method: (§3) The present inventors also adduce study data on the ability of Calebin A to reduce expression of Extracellular TNF-α, IL-1 beta [FIG. 6] and IL-6 [FIG. 7] in serum from treated mice (in-vivo models). Swiss albino male mice aged 6-8 weeks were maintained at 22±2° C. under 12/12 h light dark cycle. Mice received oral treatment of test drugs at graded doses (w/v) for 6 days, followed by intravenous injection of 1 mg/kg of LPS according to the method described by Brieva A, Guerrero A, Alonso-Lebrero J L and Pivel J P. 2001. Immunoferon, a glycoconjugate of natural origin, inhibits LPS-induced TNF-α production and inflammatory responses. International Immunopharmacology 1, 1979-1987. Six mice were employed in each group and experiments were performed in triplicates. TNF-α, IL-1 beta and IL-6 production was evaluated by a commercial ELISA kits (R&D Systems) in serum from treated mice, 90 min after LPS injection. Rolipram at 30 mg/kg was used as standard drug.

[3] = tested on: epididymal fat (adipocytes); experiment: Adipocyte size in epididymal fat of HFD mice (H&E histology); type: in vivo, C57BL/6J mice; conditions: Calebin A 0.25% and 1%, 12 weeks
Method: Fully differentiated adipocytes (8 days) previously untreated with Calebin A as described in procedural steps outlined in Example IV were treated with Calebin A at concentrations of 5-30 μM. Lipolysis was linked to the breakdown of lipids into glycerol that was released into the cell culture medium and detected thereof. […] Thus, in another most preferred embodiment, the present invention relates to a method of inducing lipolysis in mammalian adipocytes, said method comprising the step of treating mammalian adipocytes with varying concentrations of Calebin A to bring about the effect of dose dependant lipolysis in said adipocytes. […] Epididymal fat pads were dissected and fixed in 10% buffered formalin for at least 24 hours, then dehydrated with a sequence of ethanol solutions and processed for embedding in paraffin. Sections of 5-6 μm in thickness were cut, de-paraffinized, rehydrated, stained with haematoxylin & eosin (H&E) and subjected to photomicroscopic assessment. Adipocyte size was determined using a Nikon light microscope (Japan) equipped with an ocular micrometer at 200× magnification in 10 random fields per section. […]

IL-1 beta = experiment: Serum IL-1 beta in LPS-injected mice after 6 days oral treatment (ELISA); type: in vivo, Swiss albino mice; conditions: graded doses, then LPS 1 mg/kg i.v., serum 90 min after LPS
Method: as §3

adiponectin [4] = experiment: Study 2: serum adiponectin by ELISA in obese mice; type: in vivo, C57 mice; conditions: Study 2, end of study period
Method: Further, on completion of the study period blood samples were collected from all the animals in […] for estimation of systemic expression of leptin and adiponectin. Blood samples were collected humanely from retro-orbital plexus puncture method under mild ether anesthesia with the help of a fine capillary tube. The blood samples collected in tubes without anticoagulant were centrifuged at 3000 rpm for 10 minutes to obtain serum which was subjected to ELISA technique for the estimation of leptin and adiponectin. The import of leptin and adiponectin expression as biomarkers in obesity has been discussed in aforesaid paragraphs. […] Low systemic adiponectin levels have been cited as predictive factors in the progression of disease states like Type II Diabetes mellitus (Chamukuttan Snehalatha et al, “Plasma Adiponectin Is an Independent Predictor of Type 2 Diabetes in Asian Indians”, Diabetes Care December 2003 vol. 26 no. 12 3226-3229).

TNF-α [5] = experiment: Estimation of TNF-α in adipocyte supernatant by ELISA; type: cell-based; conditions: human adipocytes
Method: as §1, §2

IL-6 = experiment: Estimation of IL-6 in adipocyte supernatant by ELISA; type: cell-based; conditions: human adipocytes
Method: as §1, §2

Structure (SMILES): COc1cc(/C=C/C(=O)COC(=O)/C=C/c2ccc(O)c(OC)c2)ccc1O [Calebin A]
- percentage enhancement of adiponectin expression (adiponectin [1]; 0.5 μg/ml): 27.12%
- percentage enhancement of adiponectin expression (adiponectin [1]; 1.0 μg/ml): 34.06%
- percentage enhancement of adiponectin expression (adiponectin [1]; 2.0 μg/ml): 32.8%
- expression of TNF-α in serum (TNF-α [2]): effective in reducing
- size of adipocytes [3]: remarkable reduction
- expression of IL-1 beta in serum (IL-1 beta): effective in reducing
- enhancing the adiponectin expression in the serum of obese animals (adiponectin [4]): significant effect
- percentage inhibition of TNF-α (TNF-α [5]; 0.5 μg/ml): 36.03%
- percentage inhibition of TNF-α (TNF-α [5]; 1.0 μg/ml): 40.81%
- percentage inhibition of TNF-α (TNF-α [5]; 2.0 μg/ml): 45.47%
- percentage inhibition of IL-6 (IL-6; 0.5 μg/ml): 21.31%
- percentage inhibition of IL-6 (IL-6; 1.0 μg/ml): 32.37%
- percentage inhibition of IL-6 (IL-6; 2.0 μg/ml): 31.7%
